The text below walks through data of ChEMBL document CHEMBL1159280, “Idiospermuline, a trimeric pyrrolidinoindoline alkaloid from the seed of Idiospermum australiense” (1995).

Assay type in all cases: functional
Test [1] is filed under the species Rattus norvegicus. As to the kind of experiment: Effect on neurochemical transmission in Sprague-Dawley rat cortical wedge assessed as hyperpolarization activity at 50 to 500 uM.
The nature of test [2]: Reduction of acetylcholine-induced depolarizing response in Sprague-Dawley rat cortical wedge at 50 uM relative to control. On the set-up: scale not given: the % may be the effect or the level left.
For test [3], the species on record is Rattus norvegicus. Briefly: Effect on neurochemical transmission in Sprague-Dawley rat cortical wedge assessed as hyperpolarization activity at 10 to 100 uM.
The nature of test [4]: Reduction of acetylcholine-induced depolarizing response in Sprague-Dawley rat cortical wedge at 10 uM relative to control. More on the design: scale not given: the % may be the effect or the level left.

Activity calls are given as the source filed them. No cut-off for these calls is given here.

Turning to `CN1CC[C@]23c4ccccc4N[C@H]1[C@]21CCN(C)[C@H]3Nc2ccccc21` [CALYCANTHINE], the result in the test listed under Rattus norvegicus [1] was Active. The molecule also had an Activity in test [2] of 20.4%.

For `CN1CC[C@]2([C@]34CCN(C)[C@H]3Nc3ccccc34)c3ccccc3N[C@H]12` [CHIMONANTHINE], the outcome in the test filed under Rattus norvegicus [3] was Active. For the same molecule, the Activity in test [4] came out at 58.3%.

With `CN1CC[C@@]2(c3cccc4c3N[C@H]3N(C)CC[C@@]43[C@@]34CCN(C)[C@@H]3N(C)c3ccccc34)c3ccccc3N(C)[C@@H]12` [IDIOSPERMULINE], the outcome in the test listed under Rattus norvegicus [3] was Active. The Activity in test [4] is on record as 61.2%.
